Test results: the kinase profiling compilation of Christmann-Franck et al. (2016)

What was measured:
Test in all cases: radiometric filter-binding kinase assay, Kinase HotSpot
Conditions in all cases: compound 0.5 µM; ATP 10 µM
[1] = biological target: ABL1 (human) (UniProt P00519)
[2] = biological target: ACVR1B (human) (UniProt P36896)
[3] = biological target: AURKB (human) (UniProt Q96GD4)
[4] = biological target: CAMK1D (human) (UniProt Q8IU85)
[5] = biological target: CDK4 CCND3 (human) (UniProt P30281+P11802)
[6] = biological target: CDK5 CDK5R1 p35 (human) (UniProt Q00535+Q15078)
[7] = biological target: CLK1 (human) (UniProt P49759)
[8] = biological target: CSNK2A2 (human) (UniProt P19784)
[9] = biological target: EGFR (human) (UniProt P00533)
[10] = biological target: EPHA5 (human) (UniProt P54756)
[11] = biological target: EPHA7 (human) (UniProt Q15375)
[12] = biological target: EPHB2 (human) (UniProt P29323)
[13] = biological target: GSK3B (human) (UniProt P49841)
[14] = biological target: HIPK4 (human) (UniProt Q8NE63)
[15] = biological target: ITK (human) (UniProt Q08881)
[16] = biological target: LTK (human) (UniProt P29376)
[17] = biological target: MAP2K2 (human) (UniProt P36507)
[18] = biological target: MAP3K10 (human) (UniProt Q02779)
[19] = biological target: MAP3K11 (human) (UniProt Q16584)
[20] = biological target: MAP3K2 (human) (UniProt Q9Y2U5)
[21] = biological target: MAP3K8 (human) (UniProt P41279)
[22] = biological target: MAP3K9 (human) (UniProt P80192)
[23] = biological target: MAP4K4 (human) (UniProt O95819)
[24] = biological target: MAPK10 (human) (UniProt P53779)
[25] = biological target: MAPKAPK2 (human) (UniProt P49137)
[26] = biological target: MARK3 (human) (UniProt P27448)
[27] = biological target: PASK (human) (UniProt Q96RG2)
[28] = biological target: PHKG2 (human) (UniProt P15735)
[29] = biological target: PKN2 (human) (UniProt Q16513)
[30] = biological target: PNCK (human) (UniProt Q6P2M8)
[31] = biological target: PRKCG (human) (UniProt P05129)
[32] = biological target: PRKCI (human) (UniProt P41743)
[33] = biological target: PRKCZ (human) (UniProt Q05513)
[34] = biological target: ROS1 (human) (UniProt P08922)
[35] = biological target: RPS6KA4 KD2 (human) (UniProt O75676)
[36] = biological target: RPS6KB2 (human) (UniProt Q9UBS0)
[37] = biological target: STK25 (human) (UniProt O00506)
[38] = biological target: STK3 (human) (UniProt Q13188)
[39] = biological target: TAOK2 (human) (UniProt Q9UL54)
[40] = biological target: TEC (human) (UniProt P42680)
[41] = biological target: TSSK1B (human) (UniProt Q9BXA7)
[42] = biological target: ULK2 (human) (UniProt Q8IYT8)

PNCK (human), sequence (Q6P2M8 whole entry, looked up): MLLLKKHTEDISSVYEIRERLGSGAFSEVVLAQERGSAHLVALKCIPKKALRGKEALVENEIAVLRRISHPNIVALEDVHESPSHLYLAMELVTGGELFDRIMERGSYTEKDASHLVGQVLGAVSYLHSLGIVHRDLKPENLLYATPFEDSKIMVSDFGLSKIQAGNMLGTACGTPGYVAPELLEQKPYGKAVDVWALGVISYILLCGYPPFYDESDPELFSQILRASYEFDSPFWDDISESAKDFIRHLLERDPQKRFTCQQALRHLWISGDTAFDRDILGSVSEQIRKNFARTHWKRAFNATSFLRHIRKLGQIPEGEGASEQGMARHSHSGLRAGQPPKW
PHKG2 (human), sequence (P15735 whole entry, looked up): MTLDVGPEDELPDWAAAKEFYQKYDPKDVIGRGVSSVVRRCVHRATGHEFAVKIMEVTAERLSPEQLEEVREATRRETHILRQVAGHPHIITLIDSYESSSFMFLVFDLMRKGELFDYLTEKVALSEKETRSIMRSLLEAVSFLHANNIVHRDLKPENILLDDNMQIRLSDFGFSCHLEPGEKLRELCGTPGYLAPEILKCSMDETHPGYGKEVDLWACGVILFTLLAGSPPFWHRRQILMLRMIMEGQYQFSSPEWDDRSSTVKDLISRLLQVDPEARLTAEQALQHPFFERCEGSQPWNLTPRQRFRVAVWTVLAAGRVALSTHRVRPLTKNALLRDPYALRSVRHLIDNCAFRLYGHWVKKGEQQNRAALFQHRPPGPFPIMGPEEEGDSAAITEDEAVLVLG
GSK3B (human), sequence (P49841 whole entry, looked up): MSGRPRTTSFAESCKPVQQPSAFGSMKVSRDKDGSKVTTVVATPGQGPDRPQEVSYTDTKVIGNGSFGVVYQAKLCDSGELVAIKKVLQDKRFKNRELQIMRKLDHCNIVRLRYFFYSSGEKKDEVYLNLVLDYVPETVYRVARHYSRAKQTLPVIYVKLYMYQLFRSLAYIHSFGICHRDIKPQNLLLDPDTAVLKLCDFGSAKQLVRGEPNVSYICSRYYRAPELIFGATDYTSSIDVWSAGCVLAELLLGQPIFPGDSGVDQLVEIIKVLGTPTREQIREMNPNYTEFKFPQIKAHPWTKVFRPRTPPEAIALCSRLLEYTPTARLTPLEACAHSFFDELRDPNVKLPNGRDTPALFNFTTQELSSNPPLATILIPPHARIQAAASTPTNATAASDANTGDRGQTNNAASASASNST
ROS1 (human), sequence (P08922 whole entry, looked up): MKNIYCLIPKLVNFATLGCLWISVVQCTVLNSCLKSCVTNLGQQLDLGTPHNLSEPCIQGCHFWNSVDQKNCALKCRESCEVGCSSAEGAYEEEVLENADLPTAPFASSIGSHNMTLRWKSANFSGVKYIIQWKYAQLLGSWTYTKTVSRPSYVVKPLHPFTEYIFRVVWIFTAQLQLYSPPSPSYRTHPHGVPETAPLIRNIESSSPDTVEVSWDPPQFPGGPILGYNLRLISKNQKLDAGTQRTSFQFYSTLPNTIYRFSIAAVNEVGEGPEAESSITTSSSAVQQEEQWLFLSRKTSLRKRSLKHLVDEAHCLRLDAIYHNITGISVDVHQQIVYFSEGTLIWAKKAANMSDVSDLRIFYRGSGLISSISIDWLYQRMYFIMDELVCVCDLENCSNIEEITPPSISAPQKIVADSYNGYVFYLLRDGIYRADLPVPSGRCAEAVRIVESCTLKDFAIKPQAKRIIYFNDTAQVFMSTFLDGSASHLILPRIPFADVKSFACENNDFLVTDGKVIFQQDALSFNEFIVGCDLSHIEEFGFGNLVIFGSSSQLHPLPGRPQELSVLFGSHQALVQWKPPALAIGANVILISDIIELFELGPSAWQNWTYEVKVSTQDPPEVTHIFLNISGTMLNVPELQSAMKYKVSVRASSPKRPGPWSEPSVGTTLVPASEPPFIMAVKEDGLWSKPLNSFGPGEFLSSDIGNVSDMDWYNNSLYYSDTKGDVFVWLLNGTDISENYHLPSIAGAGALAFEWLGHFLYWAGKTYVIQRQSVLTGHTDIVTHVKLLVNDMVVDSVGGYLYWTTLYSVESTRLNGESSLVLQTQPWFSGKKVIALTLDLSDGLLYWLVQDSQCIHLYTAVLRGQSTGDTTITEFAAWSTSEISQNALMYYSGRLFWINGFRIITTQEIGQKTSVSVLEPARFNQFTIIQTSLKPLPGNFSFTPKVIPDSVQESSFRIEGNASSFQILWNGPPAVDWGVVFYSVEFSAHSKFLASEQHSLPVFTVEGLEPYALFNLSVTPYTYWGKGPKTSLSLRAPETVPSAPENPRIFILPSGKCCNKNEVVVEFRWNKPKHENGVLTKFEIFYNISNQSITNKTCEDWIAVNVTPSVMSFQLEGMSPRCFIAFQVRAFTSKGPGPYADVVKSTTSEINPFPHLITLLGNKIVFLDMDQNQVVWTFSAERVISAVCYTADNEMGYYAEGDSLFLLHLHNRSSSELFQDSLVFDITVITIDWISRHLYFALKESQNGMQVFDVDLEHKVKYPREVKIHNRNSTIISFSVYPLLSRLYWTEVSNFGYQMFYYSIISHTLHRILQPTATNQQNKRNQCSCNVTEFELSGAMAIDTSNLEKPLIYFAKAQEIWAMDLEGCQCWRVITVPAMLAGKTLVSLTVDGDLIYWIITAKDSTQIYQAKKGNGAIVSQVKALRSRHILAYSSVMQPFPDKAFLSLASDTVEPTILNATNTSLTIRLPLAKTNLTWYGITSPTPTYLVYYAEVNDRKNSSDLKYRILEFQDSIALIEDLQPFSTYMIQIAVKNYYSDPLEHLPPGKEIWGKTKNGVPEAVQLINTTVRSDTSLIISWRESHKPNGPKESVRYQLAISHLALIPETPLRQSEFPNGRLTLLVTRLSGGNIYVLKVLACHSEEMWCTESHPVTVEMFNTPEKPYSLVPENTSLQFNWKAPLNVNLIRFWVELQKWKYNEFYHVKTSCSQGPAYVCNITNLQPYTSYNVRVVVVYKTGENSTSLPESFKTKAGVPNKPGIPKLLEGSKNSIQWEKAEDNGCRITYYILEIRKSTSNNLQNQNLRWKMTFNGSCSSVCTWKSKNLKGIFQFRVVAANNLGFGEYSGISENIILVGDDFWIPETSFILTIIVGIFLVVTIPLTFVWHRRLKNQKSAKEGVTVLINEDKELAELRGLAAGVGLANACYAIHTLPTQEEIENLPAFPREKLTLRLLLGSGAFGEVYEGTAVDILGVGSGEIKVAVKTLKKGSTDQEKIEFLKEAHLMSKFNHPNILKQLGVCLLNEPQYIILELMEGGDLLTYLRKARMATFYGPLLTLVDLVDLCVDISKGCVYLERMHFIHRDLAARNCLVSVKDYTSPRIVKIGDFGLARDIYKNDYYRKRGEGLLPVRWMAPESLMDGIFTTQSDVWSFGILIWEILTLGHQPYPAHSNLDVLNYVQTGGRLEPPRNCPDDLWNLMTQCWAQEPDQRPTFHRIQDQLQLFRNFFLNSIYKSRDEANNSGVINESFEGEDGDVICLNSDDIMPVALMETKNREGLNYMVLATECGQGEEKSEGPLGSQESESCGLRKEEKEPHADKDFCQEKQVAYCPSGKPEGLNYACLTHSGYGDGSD
MAP3K10 (human), sequence (Q02779 whole entry, looked up): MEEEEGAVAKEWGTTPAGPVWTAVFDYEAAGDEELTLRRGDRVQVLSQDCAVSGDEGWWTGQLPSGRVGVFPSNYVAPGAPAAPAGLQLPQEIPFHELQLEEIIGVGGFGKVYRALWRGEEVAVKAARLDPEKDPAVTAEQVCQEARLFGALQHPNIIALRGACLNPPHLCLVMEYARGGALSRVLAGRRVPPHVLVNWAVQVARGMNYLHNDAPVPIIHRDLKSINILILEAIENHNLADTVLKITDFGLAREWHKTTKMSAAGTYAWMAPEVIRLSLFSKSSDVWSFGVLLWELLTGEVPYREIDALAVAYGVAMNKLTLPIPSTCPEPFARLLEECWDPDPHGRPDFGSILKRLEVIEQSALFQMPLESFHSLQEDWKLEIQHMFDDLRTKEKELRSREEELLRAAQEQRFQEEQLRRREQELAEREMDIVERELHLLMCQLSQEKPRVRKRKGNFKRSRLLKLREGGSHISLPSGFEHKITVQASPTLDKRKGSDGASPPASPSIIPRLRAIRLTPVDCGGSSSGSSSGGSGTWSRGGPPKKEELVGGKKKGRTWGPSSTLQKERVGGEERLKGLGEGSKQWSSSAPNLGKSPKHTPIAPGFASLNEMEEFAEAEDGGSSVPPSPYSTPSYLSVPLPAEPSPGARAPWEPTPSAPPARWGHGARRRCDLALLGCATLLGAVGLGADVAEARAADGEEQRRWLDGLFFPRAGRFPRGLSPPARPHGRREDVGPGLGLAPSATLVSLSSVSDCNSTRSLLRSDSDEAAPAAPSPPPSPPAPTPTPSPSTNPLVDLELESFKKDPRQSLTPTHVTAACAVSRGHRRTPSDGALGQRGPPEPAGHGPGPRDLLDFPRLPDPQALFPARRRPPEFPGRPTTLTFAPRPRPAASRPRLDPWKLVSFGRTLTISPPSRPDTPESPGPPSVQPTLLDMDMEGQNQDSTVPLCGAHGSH
ITK (human), sequence (Q08881 whole entry, looked up): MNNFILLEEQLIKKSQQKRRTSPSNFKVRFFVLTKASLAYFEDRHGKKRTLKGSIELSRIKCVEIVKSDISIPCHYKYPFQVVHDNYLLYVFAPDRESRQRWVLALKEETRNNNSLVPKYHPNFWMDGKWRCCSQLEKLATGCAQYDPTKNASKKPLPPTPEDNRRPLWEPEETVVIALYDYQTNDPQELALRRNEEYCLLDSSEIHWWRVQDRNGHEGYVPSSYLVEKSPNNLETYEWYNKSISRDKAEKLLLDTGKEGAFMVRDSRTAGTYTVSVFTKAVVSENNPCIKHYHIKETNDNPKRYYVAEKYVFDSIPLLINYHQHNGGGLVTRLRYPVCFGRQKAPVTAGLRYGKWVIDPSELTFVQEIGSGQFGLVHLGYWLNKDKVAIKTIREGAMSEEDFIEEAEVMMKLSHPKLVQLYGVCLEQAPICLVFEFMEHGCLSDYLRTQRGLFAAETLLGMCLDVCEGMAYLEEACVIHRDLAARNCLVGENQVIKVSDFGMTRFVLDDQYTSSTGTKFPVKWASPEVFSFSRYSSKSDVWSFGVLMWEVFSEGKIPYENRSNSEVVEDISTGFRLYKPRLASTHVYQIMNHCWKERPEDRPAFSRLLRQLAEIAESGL

Compound: CCN(CC)CCNC(=O)c1c(C)[nH]c(/C=C2\C(=O)Nc3ccc(Cl)cc32)c1C
- residual activity [1]: 24.7%
- residual activity [2]: 103%
- residual activity [3]: 31.9%
- residual activity [4]: 60.2%
- residual activity [5]: 86.3%
- residual activity [6]: 86.2%
- residual activity [7]: 34.2%
- residual activity [8]: 64.3%
- residual activity [9]: 97%
- residual activity [10]: 90.4%
- residual activity [11]: 67.1%
- residual activity [12]: 87.5%
- residual activity [13]: 93.1%
- residual activity [14]: 61.7%
- residual activity [15]: 30%
- residual activity [16]: 11.6%
- residual activity [17]: 41.4%
- residual activity [18]: 82.8%
- residual activity [19]: 21%
- residual activity [20]: 20.1%
- residual activity [21]: 113%
- residual activity [22]: 49.6%
- residual activity [23]: 4.33%
- residual activity [24]: 104%
- residual activity [25]: 103%
- residual activity [26]: 7.86%
- residual activity [27]: 89.6%
- residual activity [28]: 16.6%
- residual activity [29]: 84.4%
- residual activity [30]: 70.5%
- residual activity [31]: 101%
- residual activity [32]: 91.9%
- residual activity [33]: 104%
- residual activity [34]: 43.9%
- residual activity [35]: 59%
- residual activity [36]: 91.6%
- residual activity [37]: 56.1%
- residual activity [38]: 16.9%
- residual activity [39]: 72.6%
- residual activity [40]: 102%
- residual activity [41]: 8.45%
- residual activity [42]: 43%

Compound: CO[C@H]1CC2CC[C@@H](C)[C@@](O)(O2)C(=O)C(=O)N2CCCC[C@H]2C(=O)OC([C@H](C)C[C@@H]2CC[C@@H](O)[C@H](OC)C2)CC(=O)[C@H](C)/C=C(\C)[C@@H](O)[C@@H](OC)C(=O)[C@H](C)C[C@H](C)/C=C/C=C/C=C/1C (stereo partly drawn)
- residual activity [1]: 103%
- residual activity [2]: 97.6%
- residual activity [3]: 95.2%
- residual activity [4]: 105%
- residual activity [5]: 104%
- residual activity [6]: 99.5%
- residual activity [7]: 107%
- residual activity [8]: 94.2%
- residual activity [9]: 93.3%
- residual activity [10]: 94.7%
- residual activity [11]: 89.7%
- residual activity [12]: 114%
- residual activity [13]: 109%
- residual activity [14]: 92.9%
- residual activity [15]: 92.5%
- residual activity [16]: 107%
- residual activity [17]: 103%
- residual activity [18]: 109%
- residual activity [19]: 98.5%
- residual activity [20]: 94.8%
- residual activity [21]: 99.8%
- residual activity [22]: 87.3%
- residual activity [23]: 87.7%
- residual activity [24]: 95.9%
- residual activity [25]: 101%
- residual activity [26]: 99%
- residual activity [27]: 101%
- residual activity [28]: 108%
- residual activity [29]: 89.8%
- residual activity [30]: 95.4%
- residual activity [31]: 106%
- residual activity [32]: 99.1%
- residual activity [33]: 105%
- residual activity [34]: 85%
- residual activity [35]: 91.8%
- residual activity [36]: 95.4%
- residual activity [37]: 129%
- residual activity [38]: 105%
- residual activity [39]: 97.6%
- residual activity [40]: 138%
- residual activity [41]: 103%
- residual activity [42]: 120%

Compound: O=c1cc(N2CCOCC2)oc2c1ccc1ccccc12
- residual activity [1]: 104%
- residual activity [2]: 103%
- residual activity [3]: 97.6%
- residual activity [4]: 91.1%
- residual activity [5]: 96.8%
- residual activity [6]: 96.7%
- residual activity [7]: 98.3%
- residual activity [8]: 78.6%
- residual activity [9]: 96.2%
- residual activity [10]: 110%
- residual activity [11]: 98.6%
- residual activity [12]: 85%
- residual activity [13]: 124%
- residual activity [14]: 101%
- residual activity [15]: 100%
- residual activity [16]: 101%
- residual activity [17]: 100%
- residual activity [18]: 102%
- residual activity [19]: 99.2%
- residual activity [20]: 109%
- residual activity [21]: 98.3%
- residual activity [22]: 111%
- residual activity [23]: 89.3%
- residual activity [24]: 73.8%
- residual activity [25]: 98.3%
- residual activity [26]: 110%
- residual activity [27]: 94.9%
- residual activity [28]: 99.8%
- residual activity [29]: 93.2%
- residual activity [30]: 97.4%
- residual activity [31]: 101%
- residual activity [32]: 95.5%
- residual activity [33]: 106%
- residual activity [34]: 97%
- residual activity [35]: 99.4%
- residual activity [36]: 99.6%
- residual activity [37]: 94.8%
- residual activity [38]: 99.1%
- residual activity [39]: 108%
- residual activity [40]: 150%
- residual activity [41]: 101%
- residual activity [42]: 94.9%

Compound: CC(=O)c1ccc(N2CCOCC2)cc1O
- residual activity [1]: 98.9%
- residual activity [2]: 100%
- residual activity [3]: 91.4%
- residual activity [4]: 96.9%
- residual activity [5]: 96.4%
- residual activity [6]: 97.1%
- residual activity [7]: 110%
- residual activity [8]: 98.8%
- residual activity [9]: 97.4%
- residual activity [10]: 109%
- residual activity [11]: 95.5%
- residual activity [12]: 82.5%
- residual activity [13]: 122%
- residual activity [14]: 101%
- residual activity [15]: 97%
- residual activity [16]: 102%
- residual activity [17]: 99.8%
- residual activity [18]: 104%
- residual activity [19]: 94.8%
- residual activity [20]: 109%
- residual activity [21]: 99.4%
- residual activity [22]: 112%
- residual activity [23]: 96.9%
- residual activity [24]: 78.4%
- residual activity [25]: 103%
- residual activity [26]: 108%
- residual activity [27]: 95%
- residual activity [28]: 98.1%
- residual activity [29]: 94.8%
- residual activity [30]: 103%
- residual activity [31]: 98.7%
- residual activity [32]: 96.3%
- residual activity [33]: 111%
- residual activity [34]: 102%
- residual activity [35]: 103%
- residual activity [36]: 101%
- residual activity [37]: 90.9%
- residual activity [38]: 98.9%
- residual activity [39]: 107%
- residual activity [40]: 139%
- residual activity [41]: 107%
- residual activity [42]: 114%
